This is an account of results in ChEMBL document CHEMBL1201862, “PubChem BioAssay data set” (2004).

Assay [1] has as its target T1, Aryl hydrocarbon receptor (Homo sapiens, UniProt P35869).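 Further: confirmatory quantitative high-throughput screen measuring activation of the AhR signaling pathway.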
T1 sequence (P35869 whole entry): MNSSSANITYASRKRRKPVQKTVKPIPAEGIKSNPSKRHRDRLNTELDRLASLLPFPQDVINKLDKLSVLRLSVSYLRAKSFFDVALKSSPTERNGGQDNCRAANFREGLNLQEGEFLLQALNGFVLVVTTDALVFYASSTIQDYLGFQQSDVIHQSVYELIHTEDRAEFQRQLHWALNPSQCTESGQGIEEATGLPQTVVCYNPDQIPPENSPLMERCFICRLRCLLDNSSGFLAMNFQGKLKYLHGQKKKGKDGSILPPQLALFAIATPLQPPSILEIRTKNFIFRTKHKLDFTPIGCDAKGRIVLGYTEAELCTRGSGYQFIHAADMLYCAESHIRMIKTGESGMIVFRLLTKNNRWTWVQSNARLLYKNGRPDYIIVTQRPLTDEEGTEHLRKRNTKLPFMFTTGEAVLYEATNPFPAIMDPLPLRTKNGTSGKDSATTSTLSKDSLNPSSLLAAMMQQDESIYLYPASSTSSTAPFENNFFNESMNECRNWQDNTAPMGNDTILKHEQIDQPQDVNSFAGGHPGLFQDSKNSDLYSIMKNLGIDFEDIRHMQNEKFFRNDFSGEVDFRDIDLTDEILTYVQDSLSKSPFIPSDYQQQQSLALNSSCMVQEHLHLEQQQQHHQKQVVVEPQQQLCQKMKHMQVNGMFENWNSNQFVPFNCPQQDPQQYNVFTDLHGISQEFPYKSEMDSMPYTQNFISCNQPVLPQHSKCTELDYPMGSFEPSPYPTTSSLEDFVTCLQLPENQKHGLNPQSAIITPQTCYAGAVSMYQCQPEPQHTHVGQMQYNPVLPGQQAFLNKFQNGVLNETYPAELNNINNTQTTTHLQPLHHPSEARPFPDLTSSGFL
The following applies: Potency.

Assay [2] addresses Cytochrome P450 3A4 (Homo sapiens, UniProt P08684). The following applies: Potency.
Assay [3] concerns BJ. Briefly: cells. Type of assay: functional, cell-based. The following applies: Homo sapiens.
For assay [4], the system named is BJ. Kind of assay: cytotoxicity toward BJ-TERT-LT-ST fibroblasts, dose response, cell-based, RAS-independent, luminescence (AID 1935).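 Further: BJ fibroblasts immortalized with TERT plus LT and ST oncogenes.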 To be noted: Homo sapiens. The assay is classed as functional.
Assay [5] deals with BJ. Kind of assay: cytotoxicity toward BJ-TERT fibroblasts, dose response, cell-based, RAS-independent, luminescence (AID 1933). Type of assay: functional. The following applies: Homo sapiens.
Assay [6] can be described thus: cytotoxicity toward DRD oncogenic fibroblasts, dose response, cell-based, non-viral oncogenic, luminescence (AID 1934). Type of assay: functional. The following applies: Homo sapiens.
The target in assay [7] is Adenosylmethionine-8-amino-7-oxononanoate aminotransferase (Mycobacterium tuberculosis, UniProt P9WQ81). Briefly: Mycobacterium tuberculosis BioA enzyme inhibitor Measured in Biochemical System Using Plate Reader - 2163-02_Inhibitor_Dose_CherryPick_Activity. The assay is classed as functional, Mycobacterium tuberculosis UT205.
The target of assay [8] is T2, Mitochondrial peptide methionine sulfoxide reductase (Bos taurus, UniProt P54149).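 Further: absorbance read-out, biochemical high-throughput dose-response screen for MsrA inhibitors, confirmatory; recombinant bovine MsrA coupled to E. coli TrxB with NADPH and selenocystamine; potency is for inhibitors of MsrA activity on DMSO substrate.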
T2 sequence (P54149 whole entry): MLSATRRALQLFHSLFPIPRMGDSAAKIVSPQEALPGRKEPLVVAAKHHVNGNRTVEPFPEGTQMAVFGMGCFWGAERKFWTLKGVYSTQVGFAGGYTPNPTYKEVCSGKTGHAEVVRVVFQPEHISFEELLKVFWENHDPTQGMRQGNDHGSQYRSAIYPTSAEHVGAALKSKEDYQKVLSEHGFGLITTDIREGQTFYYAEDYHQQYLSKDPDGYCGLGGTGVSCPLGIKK
Type of assay: functional.

Assay [9] addresses T3, Sentrin-specific protease 1 (Homo sapiens, UniProt Q9P0U3).
T3 sequence (Q9P0U3 whole entry): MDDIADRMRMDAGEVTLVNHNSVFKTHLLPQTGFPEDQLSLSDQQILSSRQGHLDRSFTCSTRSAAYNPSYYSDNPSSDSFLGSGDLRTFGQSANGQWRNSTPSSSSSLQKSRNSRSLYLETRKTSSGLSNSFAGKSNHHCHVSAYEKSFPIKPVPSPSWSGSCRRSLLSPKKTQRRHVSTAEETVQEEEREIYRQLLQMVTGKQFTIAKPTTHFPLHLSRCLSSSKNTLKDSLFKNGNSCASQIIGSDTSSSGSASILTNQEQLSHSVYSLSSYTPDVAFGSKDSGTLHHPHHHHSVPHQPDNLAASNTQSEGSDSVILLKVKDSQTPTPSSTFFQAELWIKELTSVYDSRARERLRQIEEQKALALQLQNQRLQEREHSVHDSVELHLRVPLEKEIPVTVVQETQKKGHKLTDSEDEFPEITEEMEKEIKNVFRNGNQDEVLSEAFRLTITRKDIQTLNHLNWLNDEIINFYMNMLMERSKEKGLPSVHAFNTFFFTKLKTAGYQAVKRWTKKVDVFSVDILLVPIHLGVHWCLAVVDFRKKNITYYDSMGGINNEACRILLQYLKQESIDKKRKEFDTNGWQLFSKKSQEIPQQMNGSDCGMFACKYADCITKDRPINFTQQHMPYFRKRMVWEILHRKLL
Kind of assay: potency of human SENP1 inhibitors, dose response, biochemical, kinetic FRET (AID 651697). The assay is classed as functional. To be noted: read-out: IC50_Mean.

In assay [10] the test system is Vero. Briefly: cells. Type of assay: functional. The following applies: Chlorocebus sabaeus.
Assay [11] concerns the target T3, Sentrin-specific protease 1. Briefly: Dose response confirmation of small molecule inhibitors of the catalytic domain of the SUMO protease, SENP1 in a FRET assay. The assay is classed as functional. To be noted: read-out: IC50_Mean.
A short description of assay [12]: miR-122 activators in hepatoma reporter cells, dose response, cell-based, Huh7 psiCHECK-miR122, Renilla luciferase, cherry-picked (AID 651956).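 Further: huh7 hepatoma cells stably carrying a psiCHECK-2 miR-122 sensor plasmid; renilla luciferase signal reporting endogenous miR-122 activity after 48 h compound exposure.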 Type of assay: functional.
Assay [13] deals with T4, Protein kinase C zeta type (Homo sapiens, UniProt Q05513).
T4 sequence (Q05513 whole entry): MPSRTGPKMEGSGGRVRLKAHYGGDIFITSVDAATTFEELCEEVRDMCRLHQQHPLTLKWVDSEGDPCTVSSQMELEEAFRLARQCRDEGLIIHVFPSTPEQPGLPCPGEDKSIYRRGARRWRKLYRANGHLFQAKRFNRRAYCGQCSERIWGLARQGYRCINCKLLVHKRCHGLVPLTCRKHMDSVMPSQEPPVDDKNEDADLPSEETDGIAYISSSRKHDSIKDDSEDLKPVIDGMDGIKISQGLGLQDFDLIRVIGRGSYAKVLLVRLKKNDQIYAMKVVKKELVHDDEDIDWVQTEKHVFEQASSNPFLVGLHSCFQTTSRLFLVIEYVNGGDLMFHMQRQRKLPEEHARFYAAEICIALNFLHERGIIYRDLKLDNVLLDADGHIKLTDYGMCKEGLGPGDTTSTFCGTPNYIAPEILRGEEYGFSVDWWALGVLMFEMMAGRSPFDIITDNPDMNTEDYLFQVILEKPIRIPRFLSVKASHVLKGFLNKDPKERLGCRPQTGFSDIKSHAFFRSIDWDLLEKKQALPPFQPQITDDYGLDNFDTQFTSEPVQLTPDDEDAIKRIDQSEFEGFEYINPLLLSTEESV
Type of assay: functional.

The target of assay [14] is Protein kinase C gamma type (Homo sapiens, UniProt P05129). Type of assay: functional.
The target in assay [15] is PAS domain-containing serine/threonine-protein kinase (Homo sapiens, UniProt Q96RG2). The assay is classed as functional.
Assay [16] has as its target MAP kinase-activated protein kinase 3 (Homo sapiens, UniProt Q16644). The assay is classed as functional.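 Further: value comes from a kinome-wide profiling panel in which MAPKAPK3 is one of the panel members.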
Assay [17] has as its target T5, Lymphokine-activated killer T-cell-originated protein kinase (Homo sapiens, UniProt Q96KB5).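 Further: value comes from a kinase panel screen in which TOPK was one of the panel members.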
T5 sequence (Q96KB5 whole entry): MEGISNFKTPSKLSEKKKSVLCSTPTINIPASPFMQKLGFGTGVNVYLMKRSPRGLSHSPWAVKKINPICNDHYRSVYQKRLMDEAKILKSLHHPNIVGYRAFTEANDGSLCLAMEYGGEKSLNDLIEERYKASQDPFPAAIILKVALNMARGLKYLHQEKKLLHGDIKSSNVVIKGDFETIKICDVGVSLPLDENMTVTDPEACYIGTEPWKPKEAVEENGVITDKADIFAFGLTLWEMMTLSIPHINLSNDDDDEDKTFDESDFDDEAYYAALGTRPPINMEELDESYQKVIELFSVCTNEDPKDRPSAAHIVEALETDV
Type of assay: functional.

In assay [18] the target is T6, Testis-specific serine/threonine-protein kinase 2 (Homo sapiens, UniProt Q96PF2).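 Further: part of the Navigating the Kinome panel, target entry STK22B.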
T6 sequence (Q96PF2 whole entry): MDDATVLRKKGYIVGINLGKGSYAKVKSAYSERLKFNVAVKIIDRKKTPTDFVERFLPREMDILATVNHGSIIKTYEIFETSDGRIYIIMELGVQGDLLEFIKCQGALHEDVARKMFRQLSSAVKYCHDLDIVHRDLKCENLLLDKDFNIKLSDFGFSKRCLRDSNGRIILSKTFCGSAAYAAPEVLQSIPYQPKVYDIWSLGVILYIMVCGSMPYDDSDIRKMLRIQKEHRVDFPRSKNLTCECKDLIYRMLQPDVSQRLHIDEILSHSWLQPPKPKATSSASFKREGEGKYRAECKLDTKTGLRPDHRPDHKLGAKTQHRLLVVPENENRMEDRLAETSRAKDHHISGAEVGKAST
The assay is classed as functional.

Assay [19] has as its target T7, Dual specificity tyrosine-phosphorylation-regulated kinase 3 (Homo sapiens, UniProt O43781).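 Further: measured as one member of a broad kinase panel.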
T7 sequence (O43781 whole entry): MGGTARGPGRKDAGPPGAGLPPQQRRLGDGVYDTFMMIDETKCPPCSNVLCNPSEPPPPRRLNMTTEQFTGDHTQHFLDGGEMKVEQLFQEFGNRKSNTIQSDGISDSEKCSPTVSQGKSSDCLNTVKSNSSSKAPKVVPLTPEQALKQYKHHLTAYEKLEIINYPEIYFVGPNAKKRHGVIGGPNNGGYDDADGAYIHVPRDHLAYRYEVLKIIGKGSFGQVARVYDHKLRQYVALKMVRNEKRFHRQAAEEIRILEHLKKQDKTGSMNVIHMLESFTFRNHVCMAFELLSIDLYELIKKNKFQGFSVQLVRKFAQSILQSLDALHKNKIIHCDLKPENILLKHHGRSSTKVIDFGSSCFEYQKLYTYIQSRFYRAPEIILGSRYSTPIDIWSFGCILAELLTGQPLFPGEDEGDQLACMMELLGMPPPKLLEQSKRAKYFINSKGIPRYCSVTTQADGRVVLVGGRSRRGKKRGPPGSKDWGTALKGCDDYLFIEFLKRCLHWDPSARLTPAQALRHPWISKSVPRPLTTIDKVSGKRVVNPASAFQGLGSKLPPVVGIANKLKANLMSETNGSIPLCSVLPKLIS
Type of assay: functional.

The target of assay [20] is Cyclin-dependent kinase 1 (Homo sapiens, UniProt P06493). Type of assay: functional.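 Further: Kinome-wide panel profiling, with the target listed as panel member CDC2.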

Molecules are shown by their SMILES. Calls of active or inactive are those of the source.

By AC50 is commonly meant the concentration at which the activity in the assay is half-maximal. As a reminder, the EC50 is the concentration needed to bring the measured effect to its halfway point. As usually defined, the CC50 is the concentration giving 50% cytotoxicity. For orientation: Ki means the dissociation constant of the complex between target and ligand, obtained from inhibition or displacement.

Adenosylmethionine-8-amino-7-oxononanoate aminotransferase, sequence (P9WQ81 whole entry): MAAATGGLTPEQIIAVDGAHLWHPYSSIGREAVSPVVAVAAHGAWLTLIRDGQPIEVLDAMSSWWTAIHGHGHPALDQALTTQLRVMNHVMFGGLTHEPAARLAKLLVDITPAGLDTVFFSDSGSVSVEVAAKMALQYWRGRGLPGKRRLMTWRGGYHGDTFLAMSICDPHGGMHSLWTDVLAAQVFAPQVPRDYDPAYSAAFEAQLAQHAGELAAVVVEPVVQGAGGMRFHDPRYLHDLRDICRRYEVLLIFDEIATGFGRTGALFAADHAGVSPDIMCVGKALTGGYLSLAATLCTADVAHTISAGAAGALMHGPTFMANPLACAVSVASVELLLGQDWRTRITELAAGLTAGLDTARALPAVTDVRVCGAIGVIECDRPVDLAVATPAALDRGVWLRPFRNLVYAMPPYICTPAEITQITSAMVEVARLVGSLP
Cytochrome P450 3A4, sequence (P08684 whole entry): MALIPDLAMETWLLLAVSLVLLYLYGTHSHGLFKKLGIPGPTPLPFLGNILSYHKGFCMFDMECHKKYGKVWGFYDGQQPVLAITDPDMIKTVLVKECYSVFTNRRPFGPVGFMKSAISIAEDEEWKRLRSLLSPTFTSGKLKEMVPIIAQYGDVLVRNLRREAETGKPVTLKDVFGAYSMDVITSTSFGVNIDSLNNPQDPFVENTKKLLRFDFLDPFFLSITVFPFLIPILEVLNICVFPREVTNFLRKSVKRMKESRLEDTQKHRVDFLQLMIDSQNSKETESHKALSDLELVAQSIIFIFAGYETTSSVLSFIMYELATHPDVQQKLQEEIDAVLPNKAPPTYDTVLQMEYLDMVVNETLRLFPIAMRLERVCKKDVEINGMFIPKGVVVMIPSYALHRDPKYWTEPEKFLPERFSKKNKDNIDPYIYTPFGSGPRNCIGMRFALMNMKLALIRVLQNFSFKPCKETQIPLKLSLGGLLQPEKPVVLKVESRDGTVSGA
PAS domain-containing serine/threonine-protein kinase, sequence (Q96RG2 whole entry, the tested form may be a part): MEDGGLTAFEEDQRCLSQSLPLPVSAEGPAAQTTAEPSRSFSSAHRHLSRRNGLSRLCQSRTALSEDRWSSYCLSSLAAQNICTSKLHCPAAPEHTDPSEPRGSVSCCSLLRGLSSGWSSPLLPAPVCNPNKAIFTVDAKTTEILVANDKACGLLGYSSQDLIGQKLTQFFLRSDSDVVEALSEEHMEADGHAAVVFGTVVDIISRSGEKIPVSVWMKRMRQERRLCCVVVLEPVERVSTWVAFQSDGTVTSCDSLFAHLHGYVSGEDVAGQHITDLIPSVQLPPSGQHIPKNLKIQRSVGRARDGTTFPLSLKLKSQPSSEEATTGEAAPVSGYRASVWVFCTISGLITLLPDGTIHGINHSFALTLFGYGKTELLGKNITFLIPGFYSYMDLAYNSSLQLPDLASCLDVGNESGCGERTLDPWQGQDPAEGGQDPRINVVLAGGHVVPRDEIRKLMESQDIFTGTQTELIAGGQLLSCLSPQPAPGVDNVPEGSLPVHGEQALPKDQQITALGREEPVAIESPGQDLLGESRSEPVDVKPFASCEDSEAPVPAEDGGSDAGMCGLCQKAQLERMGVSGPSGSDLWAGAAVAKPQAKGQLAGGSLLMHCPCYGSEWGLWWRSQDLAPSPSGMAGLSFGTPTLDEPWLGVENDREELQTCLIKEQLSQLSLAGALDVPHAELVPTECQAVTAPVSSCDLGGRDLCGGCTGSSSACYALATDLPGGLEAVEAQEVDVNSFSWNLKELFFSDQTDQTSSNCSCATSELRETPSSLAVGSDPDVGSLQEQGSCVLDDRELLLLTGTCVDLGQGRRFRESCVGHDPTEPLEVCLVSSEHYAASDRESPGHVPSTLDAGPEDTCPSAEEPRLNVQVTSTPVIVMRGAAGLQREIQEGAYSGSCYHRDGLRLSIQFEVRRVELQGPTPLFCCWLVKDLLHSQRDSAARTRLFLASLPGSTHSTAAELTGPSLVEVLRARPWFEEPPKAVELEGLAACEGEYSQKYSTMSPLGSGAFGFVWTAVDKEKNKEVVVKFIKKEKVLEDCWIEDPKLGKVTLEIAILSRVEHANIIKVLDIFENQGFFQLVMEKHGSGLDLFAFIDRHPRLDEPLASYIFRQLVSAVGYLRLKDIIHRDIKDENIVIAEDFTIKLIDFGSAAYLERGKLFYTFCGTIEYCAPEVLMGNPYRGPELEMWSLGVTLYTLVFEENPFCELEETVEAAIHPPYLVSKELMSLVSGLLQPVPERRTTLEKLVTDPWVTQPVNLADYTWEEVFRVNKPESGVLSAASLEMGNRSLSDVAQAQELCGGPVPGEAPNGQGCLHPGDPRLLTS
MAP kinase-activated protein kinase 3, sequence (Q16644 whole entry): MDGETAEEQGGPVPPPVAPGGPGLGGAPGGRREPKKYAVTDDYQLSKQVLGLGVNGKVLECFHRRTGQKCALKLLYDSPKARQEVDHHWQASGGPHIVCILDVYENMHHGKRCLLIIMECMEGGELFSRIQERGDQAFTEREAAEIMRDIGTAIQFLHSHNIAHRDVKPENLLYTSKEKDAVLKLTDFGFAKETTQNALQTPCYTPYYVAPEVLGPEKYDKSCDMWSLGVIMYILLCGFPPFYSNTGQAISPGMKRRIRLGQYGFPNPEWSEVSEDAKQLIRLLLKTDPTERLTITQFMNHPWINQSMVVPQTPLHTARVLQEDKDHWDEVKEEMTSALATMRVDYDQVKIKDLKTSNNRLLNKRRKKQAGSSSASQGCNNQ
Cyclin-dependent kinase 1, sequence (P06493 whole entry): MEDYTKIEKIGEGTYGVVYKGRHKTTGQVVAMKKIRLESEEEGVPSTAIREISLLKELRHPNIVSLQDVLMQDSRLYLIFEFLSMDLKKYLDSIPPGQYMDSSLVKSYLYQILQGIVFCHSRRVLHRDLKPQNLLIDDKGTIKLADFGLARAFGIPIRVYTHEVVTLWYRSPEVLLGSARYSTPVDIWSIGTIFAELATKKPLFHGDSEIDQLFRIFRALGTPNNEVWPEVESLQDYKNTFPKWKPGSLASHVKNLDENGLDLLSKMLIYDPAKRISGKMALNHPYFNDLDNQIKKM

Take `COc1ccc(C(=O)Nc2ccccc2)cc1[N+](=O)[O-]`: the AC50 was 44.7 µM (inconclusive) in [1] and 15.8 µM (inconclusive) in assay [2].

Consider `CC(=O)c1ccc(N2CCN(c3ncccn3)CC2)c([N+](=O)[O-])c1`, for which the 50% effective concentration (EC50) in [3] is > 150 µM (not active); in assay [4], > 150 µM (inconclusive); in assay [5], > 150 µM (not active); in assay [6], > 150 µM (not active). Also, the half-maximal activity concentration (AC50) in assay [7] is 1.02 µM (active).

Take `CSc1nc2[nH]c3c(c2c2nnnn12)CCCC3`: the IC50 in assay [8] was 155 µM (inactive).

For `COc1cc2cnc(-c3cccnc3)cc2cc1OC`, the half-maximal activity concentration (AC50) in assay [7] is 11.2 µM (active).

In the case of `O=c1c2ccccc2nc(/C=C/c2cc(Br)ccc2O)n1CCO`, the IC50 in [9] was 8.91 µM (active); in assay [11] it was 6.14 µM (active). For the same compound, the 50% cytotoxic concentration (CC50) in assay [10] is 15.2 µM (active).

In the case of `CC(C)(C)[C@@H](O)/C(=C\c1ccc(Cl)cc1Cl)n1cncn1`, the AC50 in assay [1] was 70.8 µM (inconclusive).

Take `CNC(=O)C[C@@H]1CC[C@H]2[C@@H](COc3ccc(NC(=O)c4cccc(OC)c4)cc3C(=O)N2C)O1`: the AC50 in assay [12] is 54.9 µM (active).

In the case of `CN1CCN(c2ccc3nc(-c4c(N)c5c(F)cccc5[nH]c4=O)[nH]c3c2)CC1` [DOVITINIB], the Ki in [13] was > 7.94 µM (inactive); in assay [14], > 7.94 µM (inactive); in assay [15], > 1.58 µM (inactive); in assay [16], > 10 µM (inactive); in assay [17], > 10 µM (inactive); in assay [18], > 1.58 µM (inactive). In addition, the Ki was > 6.31 µM (inactive) in [19] and > 7.94 µM (inactive) in [20].
